Reference: patent US12006301B1, “And synthesis of dual 5-HT1A and 5-HT7 receptor ligands” (Florida A&M University, priority 2021, dated 2024)
Where a name gives a salt, the structure may show the parent alone. Read-outs that look alike come from different tables or passages of the source.

Legend:
5-HT7AR = target: T1, 5-HT7AR (Homo sapiens, UniProt P34969); assay: HEK-5-HT7A/cAMP adenylate cyclase functional assay, agonist effects; format: cell-based
T1 construct: expressed in transfected cells; host or cells: Human embryonic kidney (HEK) cells, transient transfection with PEI

[1] = target: serotonin transporter (SERT) (Homo sapiens, UniProt P31645); assay: NIMH-PDSP radioligand binding affinity, SERT; conditions: read-out: SERT binding, 50% threshold inhibition (MT)
Description: Binding affinities reported in Tables 1-3 were conducted by the National Institute of Mental Health Psychoactive Drug Screening Program (NIMH-PDSP).

5-HT2CR = target: T2, 5-HT2CR (Homo sapiens, UniProt P28335); assay: NIMH-PDSP radioligand binding affinity, 5-HT2C; conditions: for inhibition at 10 µM: read-out: 5-HT2C binding, 50% threshold inhibition (MT)
T2 sequence (P28335 33-458): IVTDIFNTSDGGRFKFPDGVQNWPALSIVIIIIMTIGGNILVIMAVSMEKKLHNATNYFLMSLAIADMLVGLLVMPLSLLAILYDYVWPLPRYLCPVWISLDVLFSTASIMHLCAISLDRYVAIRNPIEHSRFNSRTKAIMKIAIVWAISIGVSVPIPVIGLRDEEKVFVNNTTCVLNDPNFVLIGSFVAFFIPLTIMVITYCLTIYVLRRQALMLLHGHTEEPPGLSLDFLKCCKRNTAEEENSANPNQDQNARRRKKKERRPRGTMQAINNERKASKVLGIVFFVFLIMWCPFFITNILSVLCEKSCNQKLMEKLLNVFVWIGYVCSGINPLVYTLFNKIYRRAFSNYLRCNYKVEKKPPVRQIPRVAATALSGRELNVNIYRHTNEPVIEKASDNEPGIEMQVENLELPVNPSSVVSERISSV

D2R = D2R (Homo sapiens, UniProt P14416); assay: NIMH-PDSP radioligand binding affinity, D2; conditions: for inhibition at 10 µM: read-out: D2 binding, 50% threshold inhibition (MT)
D3R = D3R (Homo sapiens, UniProt P35462); assay: NIMH-PDSP radioligand binding affinity, D3
D4R = target: T3, D4R (Homo sapiens, UniProt P21917); assay: NIMH-PDSP radioligand binding affinity, D4; conditions: read-out: D4 binding, 50% threshold inhibition (MT)
T3 sequence (P21917 1-419): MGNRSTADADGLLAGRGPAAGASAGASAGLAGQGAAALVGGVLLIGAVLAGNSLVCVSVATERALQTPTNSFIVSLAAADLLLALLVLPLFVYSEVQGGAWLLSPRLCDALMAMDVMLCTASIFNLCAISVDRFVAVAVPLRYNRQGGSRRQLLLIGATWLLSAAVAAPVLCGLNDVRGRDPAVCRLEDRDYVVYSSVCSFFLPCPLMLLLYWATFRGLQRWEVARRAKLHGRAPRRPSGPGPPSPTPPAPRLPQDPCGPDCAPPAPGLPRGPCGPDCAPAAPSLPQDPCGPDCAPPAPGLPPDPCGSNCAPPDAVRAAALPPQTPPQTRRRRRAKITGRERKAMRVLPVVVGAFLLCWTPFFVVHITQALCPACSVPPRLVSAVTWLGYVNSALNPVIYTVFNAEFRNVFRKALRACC

[2] = animal models, rats, cited from earlier work
[3] = animal studies, cited from earlier work

Sequence of D2R (P14416 whole entry): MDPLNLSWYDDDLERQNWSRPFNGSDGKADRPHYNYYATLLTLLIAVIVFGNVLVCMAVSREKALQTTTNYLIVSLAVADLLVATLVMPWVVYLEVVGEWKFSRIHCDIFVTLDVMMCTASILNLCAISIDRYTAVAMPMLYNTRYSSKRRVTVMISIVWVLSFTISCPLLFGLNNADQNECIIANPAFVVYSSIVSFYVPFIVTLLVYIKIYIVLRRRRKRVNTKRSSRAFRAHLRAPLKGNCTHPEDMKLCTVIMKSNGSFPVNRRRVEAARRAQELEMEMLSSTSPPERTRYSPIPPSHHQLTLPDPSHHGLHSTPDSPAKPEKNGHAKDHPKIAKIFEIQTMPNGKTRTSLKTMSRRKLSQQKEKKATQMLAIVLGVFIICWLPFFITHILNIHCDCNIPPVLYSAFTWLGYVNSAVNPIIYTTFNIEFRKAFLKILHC
Sequence of serotonin transporter (SERT) (P31645 whole entry, species assumed): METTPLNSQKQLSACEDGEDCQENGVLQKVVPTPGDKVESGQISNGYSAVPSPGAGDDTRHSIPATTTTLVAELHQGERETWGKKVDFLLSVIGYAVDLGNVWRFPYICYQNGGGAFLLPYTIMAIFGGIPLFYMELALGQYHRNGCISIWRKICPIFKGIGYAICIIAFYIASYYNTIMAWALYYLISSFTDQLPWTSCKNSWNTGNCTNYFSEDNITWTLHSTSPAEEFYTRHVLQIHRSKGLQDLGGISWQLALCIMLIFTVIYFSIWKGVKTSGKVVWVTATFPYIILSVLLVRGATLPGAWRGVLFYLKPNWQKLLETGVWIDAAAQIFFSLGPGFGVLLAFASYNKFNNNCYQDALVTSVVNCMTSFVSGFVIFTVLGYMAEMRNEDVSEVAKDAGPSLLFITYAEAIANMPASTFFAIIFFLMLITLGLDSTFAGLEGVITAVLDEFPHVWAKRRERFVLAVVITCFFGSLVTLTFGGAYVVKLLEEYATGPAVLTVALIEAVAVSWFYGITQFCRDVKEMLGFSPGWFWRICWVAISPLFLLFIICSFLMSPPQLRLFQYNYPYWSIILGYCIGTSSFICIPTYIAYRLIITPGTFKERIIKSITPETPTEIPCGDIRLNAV
Sequence of D3R (P35462 whole entry): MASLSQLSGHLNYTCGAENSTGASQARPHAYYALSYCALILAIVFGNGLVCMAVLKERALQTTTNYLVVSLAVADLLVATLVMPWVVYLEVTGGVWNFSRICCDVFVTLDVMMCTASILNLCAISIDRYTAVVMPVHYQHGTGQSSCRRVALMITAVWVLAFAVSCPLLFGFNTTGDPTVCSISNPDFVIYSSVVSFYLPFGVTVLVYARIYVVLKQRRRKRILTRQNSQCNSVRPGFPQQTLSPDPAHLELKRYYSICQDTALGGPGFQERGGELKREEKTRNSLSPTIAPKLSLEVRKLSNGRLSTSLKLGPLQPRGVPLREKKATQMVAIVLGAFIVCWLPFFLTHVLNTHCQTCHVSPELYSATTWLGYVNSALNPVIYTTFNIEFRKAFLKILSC
T1 sequence (P34969 1-445 isoform P34969-2): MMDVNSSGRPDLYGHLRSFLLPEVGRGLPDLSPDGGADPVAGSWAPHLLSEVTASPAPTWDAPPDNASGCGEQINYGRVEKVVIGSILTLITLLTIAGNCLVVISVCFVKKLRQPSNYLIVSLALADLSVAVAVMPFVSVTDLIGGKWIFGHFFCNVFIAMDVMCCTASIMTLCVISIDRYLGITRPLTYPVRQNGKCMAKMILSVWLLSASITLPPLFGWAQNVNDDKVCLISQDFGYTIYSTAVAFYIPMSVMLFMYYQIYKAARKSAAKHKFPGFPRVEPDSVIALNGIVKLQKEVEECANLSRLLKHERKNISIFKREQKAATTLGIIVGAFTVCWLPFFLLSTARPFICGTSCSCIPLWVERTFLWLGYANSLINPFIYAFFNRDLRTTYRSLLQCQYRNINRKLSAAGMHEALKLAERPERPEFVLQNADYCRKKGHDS

SMILES	melting point	inhibition at 10 µM [1]	also measured
NCCc1c[nH]c2ccc(O)cc12 [Serotonin]			agonist activity at 5-HT7AR (in words) (5-HT7AR): showed agonist properties
O=C1CCc2cc(OCCCN3CCCN(c4ccccn4)CC3)ccc2N1 (as salt: oxalate) [Compound 10, 6-(3-(4-(pyridin-2-yl)-1,4-diazepan-1-yl)propoxy)-3,4-dihydroquinolin-2(1H)-one oxalate]	190 to 192 °C		
CC(=O)Nc1ccc(CCCCN2CCN(c3ccccn3)CC2)cc1 [Compound 4, N-(4-(4-(4-(pyridin-2-yl)piperazin-1-yl)butyl)phenyl)acetamide]		< 50%	
Nc1ccc(CCCCN2CCN(c3ccccn3)CC2)cc1 [Compound 6, 4-(4-(4-(pyridin-2-yl)piperazin-1-yl)butyl)aniline]		< 50%	inhibition at 10 µM (5-HT2CR): < 50%
O=C1CCc2cc(OCCCN3CCN(c4ccccn4)CC3)ccc21 [Compound 11, 5-(3-(4-(pyridin-2-yl)piperazin-1-yl)propoxy)-2,3-dihydro-1H-inden-1-one]	103 to 104 °C	< 50%	inhibition at 10 µM (D2R): < 50%
O=C1c2ccc(Cl)cc2CC1CCN1CCN(c2ccccn2)CC1 (centres unmarked) [Compound 15, 5-chloro-2-(2-(4-(pyridin-2-yl)piperazin-1-yl)ethyl)-2,3-dihydro-1H-inden-1-one]	132 to 135 °C	< 50%	binding affinity at D2R (in words) (D2R): lost; inhibition at 10 µM (D2R): < 50%; binding affinity at D3R (in words) (D3R): lost; inhibition at 10 µM (D3R; read-out: D3 binding, 50% threshold inhibition (MT)): < 50%
O=C1c2ccc(F)cc2CC1CCN1CCN(c2ccccn2)CC1 (centres unmarked) [Compound 13, 5-Fluoro-2-(2-(4-(pyridin-2-yl)piperazin-1-yl)ethyl)-2,3-dihydro-1H-inden-1-one]		< 50%	binding affinity at D2R (in words) (D2R): complete loss of binding affinity; inhibition at 10 µM (D2R): < 50%; 5-HT2C binding, 50% threshold inhibition (MT) (5-HT2CR; 10 µM): MT (key: MT = missed 50% threshold inhibition at 10 μM concentration)
CC(=O)Nc1ccc(C(=O)CCCN2CCN(c3ccccn3)CC2)cc1 (as salt: oxalate) [Compound 3, N-(4-(4-(4-(pyridin-2-yl)piperazin-1-yl)butanoyl)phenyl) acetamide oxalate]	140 to 142 °C		
O=C(CCCN1CCN(c2ccccn2)CC1)c1ccc2c(c1)CCC2 [Compound 12, 1-(2,3-Dihydro-1H-inden-5-yl)-4-(4-(pyridin-2-yl)piperazin-1-yl)butan-1-one]	74 to 75 °C	< 50%	
Clc1ccc2c(c1)CC(CCN1CCN(c3ccccn3)CC1)C2 (centres unmarked) [Compound 16, 1-(2-(5-chloro-2,3-dihydro-1H-inden-2-yl)ethyl)-4-(pyridin-2-yl)piperazine]		< 50%	
O=C1c2ccc(Cl)cc2CC1CCCN1CCN(c2ccccn2)CC1 (centres unmarked) [drawing 43]		< 50%	
O=C1c2ccc(Cl)cc2CC1CCCN1CCN(c2ccccn2)CC1 (centres unmarked) [Compound 19, 5-chloro-2-(3-(4-(pyridin-2-yl)piperazin-1-yl)propyl)-2,3-dihydro-1H-inden-1-one]			inhibition at 10 µM (D2R): < 50%
Clc1ccc2c(c1)CC(CCN1CCN(c3ccccn3)CC1)C2 (centres unmarked) (as salt: HCl) [Compound 16, 1-(2-(5-chloro-2,3-dihydro-1H-inden-2-yl)ethyl)-4-(pyridin-2-yl)piperazine]	267 to 270 °C		
O=C1c2ccc(Cl)cc2CC1CCCCN1CCN(c2ccccn2)CC1 (centres unmarked) (as salt: HCl) [Compound 20, 5-chloro-2-(4-(4-(pyridin-2-yl)piperazin-1-yl)butyl)-2,3-dihydro-1H-inden-1-one]	233 to 234 °C		
O=C1CCc2cc(OCCCN3CCN(c4ccccn4)CC3)ccc2N1 [Compound 9, 6-(3-(4-(pyridin-2-yl)piperazin-1-yl)propoxy)-3,4-dihydroquinolin-2(1H)-one]	154 to 155 °C		
O=C1CCc2cc(CCCCN3CCN(c4ccccn4)CC3)ccc2N1 [Compound 8, 6-(4-(4-(pyridin-2-yl)piperazin-1-yl)butyl)-3,4-dihydroquinolin-2(1H)-one]	144 to 145 °C		
OC1c2ccc(F)cc2CC1CCN1CCN(c2ccccn2)CC1 (centres unmarked) (as salt: hydroiodid) [Compound 14, 5-Fluoro-2-[2-(4-pyridin-2-yl-piperazin-1-yl)-ethyl]-indan-1-ol]	174 to 175 °C		
Nc1ccc(C(=O)CCCN2CCN(c3ccccn3)CC2)cc1 [Compound 5, 1-(4-aminophenyl)-4-(4-(pyridin-2-yl)piperazin-1-yl)butan-1-one]	203 to 204 °C	< 50%	
O=C1CCc2cc(OCCCN3CCCN(c4ccccn4)CC3)ccc2N1 [Compound 10, 6-(3-(4-(pyridin-2-yl)-1,4-diazepan-1-yl)propoxy)-3,4-dihydroquinolin-2(1H)-one oxalate]			inhibition at 10 µM (D4R): < 50%
O=C1c2cc(Cl)c(Cl)cc2CC1CCN1CCN(c2ccccn2)CC1 (centres unmarked) [Compound 18, 5,6-Dichloro-2-(2-(4-(pyridin-2-yl)piperazin-1-yl)ethyl)-2,3-dihydro-1H-inden-1-one]		< 50%	
O=C1c2cc(Cl)ccc2CC1CCN1CCN(c2ccccn2)CC1 (centres unmarked) [Compound 17, 6-chloro-2-(2-(4-(pyridin-2-yl)piperazin-1-yl)ethyl)-2,3-dihydro-1H-inden-1-one]		< 50%	
O=C1CCc2cc(C(=O)CCCN3CCN(c4ccccn4)CC3)ccc2N1 [Compound 7, 6-(4-(4-(pyridin-2-yl)piperazin-1-yl)butanoyl)-3,4-dihydroquinolin-2(1H)-one]	192 to 193 °C	< 50%	inhibition at 10 µM (5-HT2CR): < 50%
OC1c2ccc(F)cc2CC1CCN1CCN(c2ccccn2)CC1 (centres unmarked) [Compound 14, 5-Fluoro-2-[2-(4-pyridin-2-yl-piperazin-1-yl)-ethyl]-indan-1-ol]			inhibition at 10 µM (5-HT2CR): < 50%
CC(=O)Nc1ccc(C(=O)CCCN2CCN(c3ccccn3)CC2)cc1 [Compound 3, N-(4-(4-(4-(pyridin-2-yl)piperazin-1-yl)butanoyl)phenyl) acetamide oxalate]		< 50%	
Fc1ccc(CCCCN2CCN(c3ccccn3)CC2)cc1 [Compound 2, 1-(4-(4-fluorophenyl)butyl)-4-(pyridin-2-yl)piperazine]			catalepsy / motoric side effects (in words) [2]: low propensity to cause catalepsy; catalepsy / motoric side effects (in words) ([2]; listed as SYA 16263): low propensity to cause motoric side effects; catalepsy / motoric side effects (in words) ([2]; listed as SYA16263): absence of catalepsy; antipsychotic-like activity (in words) ([3]; listed as SYA 16263): moderate antipsychotic-like activity; antipsychotic-like activity (in words) ([3]; listed as SYA16263): antipsychotic-like properties
